Patent US9618511B2, “Methods and compositions for treating alzheimer's disease” (Eleanore Bennett Charitable Trust #2, priority 2008, dated 2017)

Assays:
[1] = molecular target: T1, c-AMP-dependent protein kinase A (PKA) (Bos taurus, UniProt P00517); assay: PKA activity assay (GSK-3 substrate phosphorylation); assay type: biochemical, bovine; conditions: Aβ 10 μM, PKA 2U
T1 construct: purified c-AMP-dependent protein kinase A (PKA, Promega) from bovine heart; purchased Promega; host or cells: bovine heart (tissue-purified)
Procedure: Recombinant Phosphatase and Tensin Homolog (PTEN; R & D Systems, Minneapolis, Minn.), purified PP2A from human erythrocytes (Upstate, Temecula, Calif.), and purified c-AMP-dependent protein kinase A (PKA, Promega) from bovine heart were stored at −20 and used freshly. PKA inhibitor (PKI, Biosource) and PI3K inhibitor, LY294002 (Cell Signaling) were diluted to 20 or 10 μM in kinase buffer. Antibodies used were: anti-cdk4 (polyclonal), Akt, Actin (polyclonal), and IRa (polyclonal) (Santa Cruz); p-Akt (polyclonal; Ser473 and Thr308), p-GSK-3α/0 (polyclonal; Ser21/9), GSK-30 (polyclonal), IRP (monoclonal), p-Tyrosine (monoclonal), and p-PDK (polyclonal, Ser241) (Cell Signaling, Danvers, Mass.); IRS-1 (monoclonal) and PDK (monoclonal) (BD Biosciences); PI3K (polyclonal, p85) and SGK (polyclonal) (Upstate, Temecula, Calif.); Rictor (polyclonal) (Bethyl Laboratories, Montgomery, Tex.); 6E10 (monoclonal; Covance Co.); R1282 (polyclonal; gift from Dr. Selkoe's lab). Phospholipase A2 (PLA2) was from Sigma. The lipids phosphatidylinositol-tris-3,4,5-phosphate, dipalmitoyl, (PIP3) (Matreya LLC, Pleasant Gap, Pa.), and D-myo-Phosphatidylinositol (PtdIns; PI) (Echelon, Salt Lake City, Utah) were diluted into water or CHCl3:MeOH:H2O (1:2:0.8), aliquoted into 100 μg vials and stored at −20° C. […]

C2C12 myotubes = assay: Extracellular peptide or insulin treatment of C2C12 myotubes, western blot of Akt signaling; assay type: cell-based, mouse
Procedure: The prior cell-based and in vitro experiments are relevant to […] Aβ effects. To determine the specificity of Akt inhibition by […] Aβ, C2C12 myotubes were cultured, and treated with extracellular Aβ25-35, Aβ35-25, Aβ1-42 and Aβ42-1 for 24 hours. In the last 30 minutes before harvest, insulin was added (0.1 μg/ml). While p-Akt (Ser473) and p-GSK-3 α/β levels were increased by insulin treatment (FIG. 9C, lane 2 vs. 1), they were not affected by any of the Aβ treatments. […] There were also no significant changes in p-Akt (Ser473) levels (data not shown). […] PDK itself is subject to phosphorylation (e.g., at Ser 241) and several authors feel that it is constitutively phosphorylated and thus ‘primed’ (Casamayor, A., Morrice, N. A., and Alessi, D. R., 1999, Phosphorylation of Ser-241 is essential for the activity of 3-phosphoinositide-dependent protein kinase-1: identification of five sites of phosphorylation in vivo, Biochem J 342 (Pt 2):287-292). The experiments described herein indicate that p-PDK levels are constitutively high in C2C12 cells and not boosted further by insulin action (FIG. 9E, top). p-PDK levels were not modulated by extracellular (FIG. 9E lower panel) or intracellular Aβ expression (not shown).
In FIG. 9C C2C12 myotubes were bath exposed to AP25-35, reverse AP35-25, AP1-42 and reverse Aβ42-1 peptides for 24 hours before treatment with insulin (0.1 μg/ml, 15 min) Whole cell extracts were subjected to Western analysis for p-Akt (Ser473) (Akt activation) and total Akt levels (top) as well as for endogenous levels of pGSK-3a/p, indicative of Akt activity, and total GSK-3β (lower two blots). […] The increase was not affected by pre-treatment with extracellular AR.
In FIG. 9D C2C12 myotube cultures were exposed to increasing doses of A[i1-42 (0, 10 and 25 μM) for 2 hours before treatment with insulin (0, 20, 100 and 500 ng/ml) for 15 min Harvested cell extracts were used for western blot for p-Akt (Thr308).

Aβ42: synthetic 42 amino acid β-amyloid peptide, forward sequence, freshly prepared, predominantly monomeric (BioSource)
PKA phosphorylation of GSK-3 α/β substrate [1]: not inhibited
p-PDK (Ser241) levels (C2C12 myotubes; extracellular 1-100 nM, 2 or 24 hours, then insulin 500 ng/ml 30 min): remain unaffected
p-Akt (Ser473) and p-GSK-3 α/β levels after insulin (C2C12 myotubes; extracellular peptide 24 hours, then insulin 0.1 μg/ml): not affected
p-Akt (Thr308) levels, insulin dose response (C2C12 myotubes; extracellular, up to 25 μM in the media, insulin 20, 100, 500 ng/ml): did not affect
